Assay results reported in US10751288B2, “Dry processed surface coated engineering excipients” (New Jersey Institute of Technology, priority 2016, dated 2020).
Where two headings read alike, the source gives them in different places.

Experiments:
[1] = Flow function coefficient (FFC), FT4 shear test at 3 kPa; assay type: physicochemical; details: Example 20, APIs alone
[2] = Conditioned bulk density, Freeman FT4 powder tester; assay type: physicochemical; details: Example 20, APIs alone
Description: Unless otherwise noted, bulk density and flowability, i.e., flow function coefficient (FFC), as provided herein is obtained using a Freeman FT4 powder tester (Freeman Technologies Ltd., Worcestershire, UK), where the bulk density and the flow function coefficient (FFC) were defined as the ratio of consolidation stress to the unconfined yield stress. The FFC was evaluated from a shear test under the consolidation pressure of 3 kPa. Detailed procedures for both may be found in Freeman et al., Measuring the flow properties of consolidated, conditioned and aerated powders—A comparative study using a powder rheometer and a rotational shear cell. […]
Bulk density was measured through a standard FT4 testing procedure that first conditions the powder to yield very repeatable results for the bulk density as discussed in the detailed procedures of Freeman, et al. mentioned above. […] The conditioned bulk density was measured by loading the powder samples into the 25 ml split vessel above the minimum fill level. After a conditioning cycle was performed the vessel was split to remove the top portion of the powder; the density was determined from the mass of the remaining powder in the 25 ml vessel.
In addition to measuring the porosity of the tablets, the porosity of a powder sample, and its complement, packing fraction can be also determined as follows. […]

[3] = Particle size distribution by laser diffraction (Rodos/Helos); assay type: physicochemical; details: for median particle size (D50): starting materials
Description: Unless noted otherwise, particle size distribution provided herein is volume based particle size distribution was measured by a laser diffraction particle analyzer (Rodos/Helos system, Sympatec, NJ). Size statistics in terms of d10, d50 and d90 are reported, which are the values of the particle diameter at 10%, 50% and 90% respectively in the cumulative volumetric particle size distribution. In the Rodos/Helos system, the Rodos device works by venturi principle to disperse the powder, and the Helos unit uses laser diffraction principles of Fraunhofer Enhanced Evaluation (FREE) and Mie Extended Evaluation (MIEE) theories of light scattering to determine the particle size. Size statistics of d10, d50 and d90 at dispersion pressure of 0.1 bar are reported utilizing the FREE theory, the details for which can be found in Han et al. “Passivation of high surface energy sites of milled ibuprofen crystals via dry coating,” Journal of Pharmaceutical Sciences, Vol. 102(7), 1-15 (2013) and Jallo et al. “Improvement of flow and bulk density of pharmaceutical powders using surface modification,” International Journal of Pharmaceutics, 423 213-225 (2012).

[4] = from Huang et al., 2015; cited from earlier work
[5] = True (apparent particle) density by helium pycnometer; assay type: physicochemical; details: Table 1
Description: First, the apparent particle density, […]app, for each powder (also referred to as the gas pycnometric and true density of particles) was determined using a helium multipycnometer (Model MVP-6DC, Quantachrome instruments, FL, 33426, USA; repeated five time to get an average). After this is determined, the porosity of each tablet (ε) was calculated from the apparent particle density (ρapp) and the diameter (D), thickness (t) and weight (w) of the tablets using the following equation. All quantities are in SI units.

[6] = from Huang et al., 2015; cited from earlier work; remark: listed apart in the source
[7] = as-received commercial materials, Table 1

Compound	FFC [1]	bulk density [2]	median particle size (D50) [3]	bulk density [4]	True Density [5]	FFC [6]	Particle Size D10 [3, 7]	Particle Size D50 [3, 7]	Particle Size D90 [3, 7]
O=C1O[C@H]([C@@H](O)CO)C(O)=C1O [Ascorbic Acid]	4.67	0.896 g/mL	217 microns						
CC(C)Cc1ccc(C(C)C(=O)O)cc1 (centres unmarked) [Ibuprofen 50]			58 microns						
CC(=O)Nc1ccc(O)cc1 [Micronized APAP, micronized acetaminophen]		0.206 g/mL		about 0.2 g/mL	1.29 g/mL	about 2	2 μm	10 μm	37 μm
